In general, IC50 refers to the concentration at which inhibition is half-maximal.

Drawing on ChEMBL document CHEMBL3886529, “PDE10a inhibitors for the treatment of type II diabetes” (2016), this text covers IC50 for 3 compounds.

The experiment addresses T1, cAMP and cAMP-inhibited cGMP 3',5'-cyclic phosphodiesterase 10A (Rattus norvegicus, UniProt Q9QYJ6).
T1 sequence (Q9QYJ6 whole entry): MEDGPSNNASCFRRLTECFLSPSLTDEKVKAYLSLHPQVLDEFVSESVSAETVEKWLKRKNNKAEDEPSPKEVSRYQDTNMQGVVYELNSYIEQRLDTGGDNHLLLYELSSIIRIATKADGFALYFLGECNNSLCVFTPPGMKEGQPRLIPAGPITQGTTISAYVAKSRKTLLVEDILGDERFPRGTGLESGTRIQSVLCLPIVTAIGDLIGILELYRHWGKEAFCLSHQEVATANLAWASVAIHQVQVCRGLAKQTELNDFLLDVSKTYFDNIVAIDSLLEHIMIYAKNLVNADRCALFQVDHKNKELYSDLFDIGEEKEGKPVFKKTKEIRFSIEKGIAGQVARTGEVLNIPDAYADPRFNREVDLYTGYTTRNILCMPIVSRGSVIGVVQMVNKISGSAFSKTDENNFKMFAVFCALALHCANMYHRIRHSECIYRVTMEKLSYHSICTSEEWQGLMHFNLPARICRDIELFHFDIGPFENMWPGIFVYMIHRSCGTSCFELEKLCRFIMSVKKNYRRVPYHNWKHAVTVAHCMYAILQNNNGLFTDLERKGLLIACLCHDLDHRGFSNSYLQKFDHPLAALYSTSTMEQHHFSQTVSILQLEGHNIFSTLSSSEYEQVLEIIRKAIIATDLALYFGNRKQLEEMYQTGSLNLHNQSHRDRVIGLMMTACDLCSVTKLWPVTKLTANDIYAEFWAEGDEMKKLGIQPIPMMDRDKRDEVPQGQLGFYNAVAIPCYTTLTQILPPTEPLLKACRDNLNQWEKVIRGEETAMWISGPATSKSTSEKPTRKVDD
The experiment can be described thus: In Vitro Assay rPDE10: Rat recombinant PDE10a (rPDE10a) was expressed in Sf9 cells using a recombinant rPDE10a baculovirus construct. Cells were harvested after 48 h of infection and the rPDE10a protein was purified by metal chelate chromatography on Ni-sepharose 6FF. Tested compounds were dissolved and diluted in 100% DMSO to a concentration 100 fold of the final concentration in the assay. Compound dilutions (0.4 uL) were added in 384 well plates to 20 uL of incubation buffer (50 mM Tris pH 7.8, 8.3 mM MgCl2, 1.7 mM EGTA). 10 uL of rPDE10a enzyme in incubation buffer was added and the reaction was started by addition of 10 uL substrate to a final concentration of 60 nM cAMP and 0.008 uCi 3H-cAMP. The reaction was incubated for 60 min at rt. After incubation, the reaction was stopped with 20 uL of 17.8 mg/mL PDE SPA beads. After sedimentation of the beads during 30 min the radioactivity was measured in a Perkin Elmer Topcount scintillation counter and results were expressed as cpm. For blank values the enz.

As for `c1ccc2nc(OCc3cn4c(C5CCNCC5)cnc(N5CCOCC5)c4n3)ccc2c1`, the IC50 was 562 nM.
As to `O=C1Nc2ccc(-c3cnc(N4CCOCC4)c4nc(CCc5ccc6ccccc6n5)cn34)cc2C1(F)F`, the IC50 stood at 19 nM.
Take `O=C(O)c1cc(/C=C/c2cn3ccnc(N4CCOCC4)c3n2)nc2ccccc12`: the IC50 turned out to be 9 nM.
